Experimental data reported in patent US20240083903A1, “ARYL ETHER COMPOUNDS AS TEAD MODULATORS” (Merck Sharp& Dohme LLC, priority 2021, published 2024).

Tested on: TEAD Reporter-MCF7 cell line
Assay: YAP/TEAD cellular activity assay: inhibition of TEAD-Luc activity in TEAD Reporter-MCF7 cell line
Assay type: cell-based, human
Conditions: TEAD Reporter-MCF7 cells, 24 hours incubation with compound, luciferase readout
Procedure: YAP/TEAD Cellular Activity Assay
Quantitation of Compound Potency on the Inhibition of TEAD-Luc Activity in TEAD Reporter-MCF7 Cell Line.
The TEAD Reporter-MCF7 cell line containing the firefly luciferase gene under the control of TEAD responsive elements stably integrated into the human breast cancer cell line was purchased from BPS Bioscience (Cat #60618). The cells were cultured with complete culture medium ([…], 1 mM sodium pyruvate, 10% fetal bovine serum, 10 ng/mL insulin and 400 ug/mL G418 sulfate) prior to the assay. For the assay, the cells were harvested, resuspended in the complete culture medium without G418, and seeded into white solid bottom 384-well cell culture microplates in 25 uL with 10,000 cells per well. The plates were incubated at 37° C. in a CO2 incubator for 20-24 hours and the compounds were then transferred from Echo LDV plates directly into the 384-well white tissue culture plates with an Echo. The plates were incubated at 37° C. in a CO2 incubator for 24 hours and equal volume of ONE-Glo™ EX Luciferase reagent (Promega, Cat #E8150) was added. After mixing on a shaker at room temperature for 10 minutes, the luciferase activity was measured with an Envision. The percentage inhibition and EC50 values of compounds were calculated with Spotfire.
Required Materials • 1. TEAD reporter-MCF-7 Cells (BPS Bioscience, #60618) • 2. Complete Cell Culture Medium (without selection antibiotics) • EMEM 89% (ATCC, #30-2003) • FBS 10% (Hyclone, #SH30088.03) • 1% Non essential amino acids (Gibco, • 1 mM sodium pyruvate (Gibco, • Pen/Strep, 1% (Gibco, #15140-122) • 10 ng/mL insulin (Sigma, #10516) • 3. Complete Cell Culture Medium (with selection antibiotics) • EMEM 89% (ATCC, #30-2003) • F1% Non essential amino acids (Gibco, • 1 mM sodium pyruvate (Gibco, • BS 10% (Hyclone, #SH30088.03) • 10 ng/mL insulin (Sigma, #10516) • 400 ug/mL G418 sulfate (Agilent, #200049-21) • 4. Miscellaneous tissue culture equipment and reagents. • 5. White solid 384-well tissue culture plate (Greiner, Cat #781080) • 6. One Glo EX luciferase assay system (Promega, #E8150)
The following table tabulates the biological data disclosed for the current invention. The biological data was collected using the methodology described above. For each compound, TEAD-Luc EC50 values are listed in nanomolar (nM) concentration units.

Compound	EC50 (Homo sapiens, MCF7, 24 h) [nM]	EC50 [nM]
CNS(=O)(=O)c1ccc(Oc2ccc(SC(F)(F)F)cc2)c(-c2cn3c(n2)CCC3)c1 [4-17, 3-(6,7-dihydro-5H-pyrrolo[1,2-a]imidazol-2-yl)-N-methyl-4-{4-[(trifluoromethyl)sulfanyl]phenoxy}benzene-1-sulfonamide]	14	
CNS(=O)(=O)c1ccc(Oc2cccc(C(F)(F)F)c2)c(-c2cn3c(n2)CCC3)c1 [4-15, 3-(6,7-dihydro-5H-pyrrolo[1,2-a]imidazol-2-yl)-N-methyl-4-[3-(trifluoromethyl)phenoxy]benzene-1-sulfonamide]	22.3	
CNS(=O)(=O)c1ccc(Oc2ccc(C(F)(F)F)cc2)c(-c2nc3cccnc3s2)c1 [1-11, N-methyl-3-([1,3]thiazolo[5,4-b]pyridin-2-yl)-4-[4-(trifluoromethyl)phenoxy]benzene-1-sulfonamide]	238	
CNS(=O)(=O)c1ccc(Oc2ccc(F)cc2F)c(-c2cn3c(n2)CCC3)c1 [4-21, 4-(2,4-difluorophenoxy)-3-(6,7-dihydro-5H-pyrrolo[1,2-a]imidazol-2-yl)-N-methylbenzene-1-sulfonamide]		55.9
CNS(=O)(=O)c1ccc(Oc2ccc(C(F)(F)F)cc2)c(-c2ccc3c(cnn3C)c2)c1 [2-15, N-methyl-3-(1-methyl-1H-indazol-5-yl)-4-[4-(trifluoromethyl)phenoxy]benzene-1-sulfonamide]	336	
CNS(=O)(=O)c1ccc(Oc2ccc(C(F)(F)F)cc2)c(-c2ccc3cc(OC)nnc3c2)c1 [2-2, 3-(3-Methoxycinnolin-7-yl)-N-methyl-4-[4-(trifluoromethyl)phenoxy]benzene-1-sulfonamide]	50.5	
CNS(=O)(=O)c1ccc(Oc2ccc(C(F)(F)F)cc2)c(-c2cnc3cccnc3c2)c1 [2-30, N-methyl-3-(1,5-naphthyridin-3-yl)-4-[4-(trifluoromethyl)phenoxy]benzene-1-sulfonamide]	675	
CNS(=O)(=O)c1ccc(Oc2ccc(C(F)(F)F)cc2)c(-c2cnc3c(N)cccn23)c1 [1-21, 3-(8-aminoimidazo[1,2-a]pyridin-3-yl)-N-methyl-4-[4-(trifluoromethyl)phenoxy]benzene-1-sulfonamide]	9280	
CNS(=O)(=O)c1ccc(Oc2ccc(C(F)(F)F)cc2)c(-c2cnc3cc(C)ccn23)c1 [1-25, N-methyl-3-(7-methylimidazo[1,2-a]pyridin-3-yl)-4-[4-(trifluoromethyl)phenoxy]benzene-1-sulfonamide]	3270	
CNS(=O)(=O)c1ccc(Oc2ccc(Cl)cc2)c(-c2cnn3c2OCC3)c1 [1-47, 4-(4-chlorophenoxy)-3-(2,3-dihydropyrazolo[5,1-b]oxazol-7-yl)-N-methylbenzenesulfonamide]	104	
CNS(=O)(=O)c1ccc(Oc2ccc(C(F)(F)F)cc2)c(-c2cn3c(n2)CCCC3)c1 [1-9, N-methyl-3-(5,6,7,8-tetrahydroimidazo [1,2-a]pyridin-2-yl)-4-[4-(trifluoromethyl)phenoxy]benzene-1-sulfonamide]	12.8	
CNS(=O)(=O)c1ccc(Oc2ccc(C(F)(F)F)cc2)c(-c2nc3n(c2C#N)CCNC3)c1 [1-17, 3-(3-cyano-5,6,7,8-tetrahydroimidazo[1,2-a]pyrazin-2-yl)-N-methyl-4-[4-(trifluoromethyl)phenoxy]benzene-1-sulfonamide]	1070	
CNS(=O)(=O)c1ccc(Oc2ccc(C(F)(F)F)cc2)c(-c2cn3c(n2)CCC3)c1 [1-1, 3-(6,7-Dihydro-5H-pyrrolo[1,2-a]imidazol-2-yl)-N-methyl-4-(4-(trifluoromethyl)phenoxy)benzenesulfonamide]	6	
CNS(=O)(=O)c1ccc(Oc2ccc(C)cc2F)c(-c2cn3c(n2)CCC3)c1 [4-19, 3-(6,7-dihydro-5H-pyrrolo[1,2-a]imidazol-2-yl)-4-(2-fluoro-4-methylphenoxy)-N-methylbenzene-1-sulfonamide]	15.3	
CNS(=O)(=O)c1ccc(Oc2cc(F)cc(C(F)(F)F)c2)c(-c2cnn3c2CCC3)c1 [3-3, 3-(5,6-dihydro-4H-pyrrolo[1,2-b]pyrazol-3-yl)-4-[3-fluoro-5-(trifluoromethyl)phenoxy]-N-methylbenzene-1-sulfonamide]	2080	
CNS(=O)(=O)c1ccc(Oc2ccc(C(F)F)cc2)c(-c2cn3c(n2)CCC3)c1 [1-40, 4-[4-(difluoromethyl)phenoxy]-3-(6,7-dihydro-5H-pyrrolo[1,2-a]imidazol-2-yl)-N-methylbenzene-1-sulfonamide]	27	
CNS(=O)(=O)c1ccc(Oc2ccc(C(F)(F)F)cc2)c(-c2cn3cc(C)ccc3n2)c1 [1-34, N-methyl-3-(6-methylimidazo[1,2-a]pyridin-2-yl)-4-[4-(trifluoromethyl)phenoxy]benzene-1-sulfonamide]	88.5	
CNS(=O)(=O)c1ccc(Oc2ccc(F)c(F)c2)c(-c2cn3c(n2)CCC3)c1 [4-11, 4-(3,4-difluorophenoxy)-3-(6,7-dihydro-5H-pyrrolo[1,2-a]imidazol-2-yl)-N-methylbenzene-1-sulfonamide]	206	
CNS(=O)(=O)c1ccc(Oc2ccc(C(F)(F)F)cc2)c(-c2cnc3c(c2)OCCN3C)c1 [2-18, N-methyl-3-(4-methyl-3,4-dihydro-2H-pyrido[3,2-b][1,4]oxazin-7-yl)-4-[4-(trifluoromethyl)phenoxy]benzene-1-sulfonamide]	606	
CNS(=O)(=O)c1ccc(Oc2ccc(C(F)(F)F)cc2)c(-c2cncc3ccccc23)c1 [2-19, 3-(isoquinolin-4-yl)-N-methyl-4-[4-(trifluoromethyl)phenoxy]benzene-1-sulfonamide]	8860	
CNS(=O)(=O)c1ccc(Oc2ccc(C(F)(F)F)cc2)c(-c2cn3c(n2)C(C)CC3)c1 (single isomer, unassigned) [1-43, (R)- or (S)-N-methyl-3-(7-methyl-6,7-dihydro-5H-pyrrolo[1,2-a]imidazol-2-yl)-4-[4-(trifluoromethyl)phenoxy]benzene-1-sulfonamide]		8.1
CNS(=O)(=O)c1ccc(Oc2ccc(C(F)(F)F)cc2)c(-c2ccc3c(=O)nc[nH]c3c2)c1 [2-32, N-methyl-3-(4-oxo-1,4-dihydroquinazolin-7-yl)-4-[4-(trifluoromethyl)phenoxy]benzene-1-sulfonamide]	7570	
CNS(=O)(=O)c1ccc(Oc2ccc(C(F)(F)F)cc2)c(-c2cn3c(n2)OC(C)C3)c1 (single isomer, unassigned) [1-39, (S)- or (R)-N-methyl-3-(2-methyl-2,3-dihydroimidazo[2,1-b] [1,3]oxazol-6-yl)-4-[4-(trifluoromethyl)phenoxy]benzene-1-sulfonamide]		7.4
CNS(=O)(=O)c1ccc(Oc2ccc(C(F)(F)F)cc2)c(-c2ccc3nc(OC)ccc3c2)c1 [2-29, 3-(2-methoxyquinolin-6-yl)-N-methyl-4-[4-(trifluoromethyl)phenoxy]benzene-1-sulfonamide]	89.7	
CNS(=O)(=O)c1ccc(Oc2cccc(OC(F)(F)F)c2)c(-c2cnn3c2CCC3)c1 [3-5, 3-(5,6-dihydro-4H-pyrrolo[1,2-b]pyrazol-3-yl)-N-methyl-4-[3-(trifluoromethoxy)phenoxy]benzene-1-sulfonamide]	3090	
CNS(=O)(=O)c1ccc(Oc2ccc(C(F)(F)F)cc2)c(-c2nc3cnccn3n2)c1 [1-15, N-methyl-3-([1,2,4]triazolo[1,5-a]pyrazin-2-yl)-4-[4-(trifluoromethyl)phenoxy]benzene-1-sulfonamide]	540	
CNS(=O)(=O)c1cnc(Oc2ccc(C(F)(F)F)cc2)c(-c2cc3n(n2)CCC3)c1 [8-3, 5-(5,6-dihydro-4H-pyrrolo[1,2-b]pyrazol-2-yl)-N-methyl-6-[4-(trifluoromethyl)phenoxy]pyridine-3-sulfonamide]	1.3	
CNS(=O)(=O)c1ccc(Oc2ccc(C(F)(F)F)cc2)c(-c2nsc3ccccc23)c1 [1-13, 3-(1,2-benzothiazol-3-yl)-N-methyl-4-[4-(trifluoromethyl)phenoxy]benzene-1-sulfonamide]	414	
CNS(=O)(=O)c1ccc(Oc2ccc(Cl)cc2)c(-c2cn3c(n2)CCC3)c1 [4-12, 4-(4-chlorophenoxy)-3-(6,7-dihydro-5H-pyrrolo[1,2-a]imidazol-2-yl)-N-methylbenzene-1-sulfonamide]	14.1	
CNS(=O)(=O)c1ccc(Oc2ccc(OC(F)(F)F)cc2)c(-c2cnn3c2CCC3)c1 [3-4, 3-(5,6-dihydro-4H-pyrrolo[1,2-b]pyrazol-3-yl)-N-methyl-4-[4-(trifluoromethoxy)phenoxy]benzene-1-sulfonamide]	618	
